# Results reported in patent US9308195B2, “Non-aqueous taxane formulations and methods of using the same” (Teikoku Pharma USA, Inc., priority 2012, dated 2016).
# Assay: Solubility of anhydrous docetaxel in PEG 400 or PEG 300
# Type: physicochemical
# Details: per 1 g of PEG 300; ultrasonic dispersion for 5 minutes at 70-80° C.
# Protocol: Formulations of anhydrous docetaxel and either PEG 400 or PEG 300 were prepared and mixed using ultrasonic dispersion for 5 minutes at 70-80° C. 1 g of PEG 400 dissolved 25 mg of anhydrous docetaxel. […] 1 g of PEG 300 dissolved 100 mg of anhydrous docetaxel. Accordingly, PEG 300 was able to better solubilize anhydrous docetaxel.
structure (smiles),measurement,value
"CC(=O)O[C@@]12CO[C@@H]1C[C@H](O)[C@@]1(C)C(=O)[C@H](O)C3=C(C)[C@@H](OC(=O)[C@H](O)[C@@H](NC(=O)OC(C)(C)C)c4ccccc4)C[C@@](O)([C@@H](OC(=O)c4ccccc4)[C@H]21)C3(C)C [anhydrous docetaxel, (2R,3S)-N-carboxy-3-phenylisoserine,Ntert-butyl ester, 13-ester with 5β-20-epoxy-1,2α,4,7β,10β,13α-hexahydroxytax-11-en-9-one 4-acetate 2-benzoate]",amount of anhydrous docetaxel dissolved by 1 g of PEG 300,≥ 100 mg
